For experiment [1], the system named is A. fumigatus. The experiment in a line: A. fumigatus MIC, CLSI M38-A2. The note with it: Aspergillus fumigatus, read-out: Aspergillus MIC.
Description: A. fumigatus MICs were determined at both 50% and 100% growth inhibition following CLSI guidelines at a concentration range of 64-0.062 μg/mL (CLSI M38-A2).
A further experiment has as its system C. albicans. In words: Minimum Inhibitory Concentration (MIC), C. albicans, CLSI M27-A2. Conditions: Candida albicans MIC50; about 50% growth reduction; approximately 48 h at 35±1° C. The experiment is classed as cell-based. The protocol:
Compounds were assessed for their ability to inhibit the growth of common strains of fungus, C. albicans using a standardized procedure (CLSI M27-A2).
Stock solutions of the test compounds and standards were prepared in DMSO at 1600 μg/mL (C. albicans). Eleven, serial, one-half dilutions of compounds were prepared in 96-well plates in RPMI+MOPS. The assay concentration ranges were 1-0.001 μg/mL (C. albicans). Cell suspensions of C. albicans were prepared and added to each well at concentrations of approximately 3.7×10^3 colony-forming-units per milliliter (cfu/mL). All testing was in duplicate. The inoculated plates were incubated for approximately 48 h at 35±1° C. At the completion of incubation the wells of each plate were evaluated visually for the presence of fungal growth.
For voriconazole the M1C was the concentration which reduced C. albicans growth by 50% (per CLST, M27-A2). For QC purposes C. krusei isolate ATCC 6258 (4.0×10^3 cfu/mL) was included in the VOR assay.

A further experiment relates to Septoria tritici. The experiment in a line: standard Septoria tritici MIC assay (ATCC 26517, CLSI protocol). The experiment is classed as cell-based. The note with it: Zymoseptoria tritici, ATCC26517, range stated for the three compounds together.
The next experiment relates to Puccinia. In words: protection from fungal growth in planta, Puccinia. The experiment is classed as in vivo. Conditions: applied at 50 ppm; Puccinia pathogen.
The next experiment concerns Septoria. In words: protection from fungal growth in planta, Septoria. The experiment is classed as in vivo. Conditions: applied at 50 ppm; Septoria pathogen.
For experiment [2], the system named is A. fumigatus. In words: standard 4-day mouse model of A. fumigatus, kidney fungal burden. The experiment is classed as in vivo. The note with it: oral administration at 20 mg/kg each of 4 days. The protocol: For example, oral administration of Compound (−)-9 at 20 mg/kg each of 4 days reduced mouse kidney fungal burden 84% compared to control.

The source of these data is patent publication US10370354B2, “Metalloenzyme inhibitor compounds” (NQP 1598, LTD., priority 2011, dated 2019).

Molecules are shown by their SMILES. Values after ≈ are worked out from the molar mass of the structure shown.

As usually defined, the MIC is the lowest concentration that inhibits growth of the organism. For `OC(Cn1cnnn1)(c1ccc(F)cc1F)C(F)(F)c1ccc(C#Cc2ccc(C(F)(F)F)cc2)cn1` (racemic) [Example 5, 2-(2,4-Difluorophenyl)-1,1-difluoro-3-(1H-tetrazol-1-yl)-1-(5-((4-(trifluoromethyl)phenyl)ethynyl)pyridin-2-yl)propan-2-ol], the minimal inhibitory concentration (MIC) was 8 µg/mL (≈ 15.3 µM) with A. fumigatus [1] and 0.016 µg/mL (≈ 0.0307 µM) in the experiment with C. albicans.

Take `OC(Cn1cnnn1)(c1ccc(F)cc1F)C(F)(F)c1ccc(C#Cc2ccc(F)cc2)cn1` (racemic) [Example 3, 2-(2,4-Difluorophenyl)-1,1-difluoro-1-(5-((4-fluorophenyl)ethynyl)pyridin-2-yl)-3-(1H-tetrazol-1-yl)propan-2-ol]: the MIC against Septoria tritici lay within 0.25 to 1 µg/mL (≈ 0.53 to 2.12 µM).

For the compound `OC(Cn1cnnn1)(c1ccc(F)cc1F)C(F)(F)c1ccc(C#Cc2ccc(OCc3ccc(Cl)cc3F)cc2)cn1` (racemic) [Example 108, 1-(5-((4-(4-chloro-2-fluorobenzyloxy)phenyl)ethynyl)pyridin-2-yl)-2-(2,4-difluorophenyl)-1,1-difluoro-3-(1H-tetrazol-1-yl)propan-2-ol], the results for the MIC in the experiment with A. fumigatus [1] and with C. albicans were 4 µg/mL (≈ 6.54 µM) and 0.062 µg/mL (≈ 0.101 µM), respectively.

Consider `C[C@@H](c1ncncc1F)[C@](O)(Cn1cncn1)c1ccc(F)cc1F` [Voriconazole, reference compound], for which the MIC in the experiment with A. fumigatus [1] was found to be 0.25 µg/mL (≈ 0.716 µM); in the experiment with C. albicans, 0.016 µg/mL (≈ 0.0458 µM).

Turning to `OC(Cn1cnnn1)(c1ccc(F)cc1F)C(F)(F)c1ccc(C#Cc2ccc(Cl)cc2)cn1` (racemic) [Example 2, 1-(5-((4-Chlorophenyl)ethynyl)pyridin-2-yl)-2-(2,4-difluorophenyl)-1,1-difluoro-3-(1H-tetrazol-1-yl)propan-2-ol], the “protection from fungal growth in planta” value in the experiment with Puccinia and in the experiment with Septoria was “provide protection from fungal growth” throughout. In addition, the minimum inhibitory concentration (MIC) is 8 µg/mL (≈ 16.4 µM) in the experiment on A. fumigatus [1], 0.004 µg/mL (≈ 0.0082 µM) against C. albicans and 0.25 to 1 µg/mL (≈ 0.512 to 2.05 µM) against Septoria tritici.

As to `OC(Cn1cnnn1)(c1ccc(F)cc1F)C(F)(F)c1ccc(C#Cc2cccc(Cl)c2)cn1` (racemic) [Example 21, 1-(5-((3-chlorophenyl)ethynyl)pyridin-2-yl)-2-(2,4-difluorophenyl)-1,1-difluoro-3-(1H-tetrazol-1-yl)propan-2-ol], the MIC against Septoria tritici lay within 0.25 to 1 µg/mL (≈ 0.512 to 2.05 µM).

With `OC(Cn1cnnn1)(c1ccc(F)cc1F)C(F)(F)c1ccc(C#Cc2ccc(OCc3ccc(OC(F)(F)F)cc3)cc2)cn1` (racemic) [Example 101, 2-(2,4-difluorophenyl)-1,1-difluoro-3-(1H-tetrazol-1-yl)-1-(5-((4-(4-(trifluoromethoxy)benzyloxy)phenyl)ethynyl)pyridin-2-yl)propan-2-ol], the results for the minimal inhibitory concentration (MIC) with A. fumigatus [1] and against C. albicans were 2 µg/mL (≈ 3.11 µM) and 0.25 µg/mL (≈ 0.388 µM), respectively.

As to `OC(c1ccc(C#Cc2ccc(C(F)(F)C(O)(Cn3cnnn3)c3ccc(F)cc3F)nc2)cc1)C(F)(F)F` (racemic) [Example 9, 2-(2,4-difluorophenyl)-1,1-difluoro-3-(1H-tetrazol-1-yl)-1-(5-((4-(2,2,2-trifluoro-1-hydroxyethyl)phenyl)ethynyl)pyridin-2-yl)propan-2-ol], the values for the MIC in the experiment with A. fumigatus [1] and in the experiment on C. albicans were 0.5 µg/mL (≈ 0.907 µM) and no more than 0.001 µg/mL, respectively.

`OC(c1ccc(C#Cc2ccc(C(F)(F)C(O)(Cn3cnnn3)c3ccc(F)cc3F)nc2)cc1)C(F)(F)F` (stereo not drawn) [Compound (−)-9, 2-(2,4-difluorophenyl)-1,1-difluoro-3-(1H-tetrazol-1-yl)-1-(5-((4-(2,2,2-trifluoro-1-hydroxyethyl)phenyl)ethynyl)pyridin-2-yl)propan-2-ol]: the “reduced mouse kidney fungal burden compared to control” value with A. fumigatus [2] amounted to 84%.
